Test results: paper PMC10251479, “PROTAC-Induced Glycogen Synthase Kinase 3β Degradation as a Potential Therapeutic Strategy for Alzheimer’s Disease” (ACS Chemical Neuroscience, 2023)

Tests used:
[1] = system: SH-SY5Y cells; assay: Cytotoxicity in SH-SY5Y cells (MTT); format: cell-based, human
Method: Human neuronal SH-SY5Y cells (Sigma-Aldrich, St. Louis, MO, USA) were routinely grown in Dulbecco’s modified Eagle’s Medium supplemented with 10% fetal bovine serum, 2 mM l-glutamine, 50 U/mL penicillin, and 50 μg/mL streptomycin at 37 °C in a humidified incubator with […]
Determination of cytotoxicity
SH-SY5Y cells were seeded in a 96-well plate at 2 × 10^4 cells/well, incubated for 24 h and then […]
for 24 h at 37°C in 5% CO2. The cell viability, in terms of mitochondrial metabolic function, was evaluated by the reduction of 3-(4,5-dimethyl-2-thiazolyl)-2,5-diphenyl-2H-tetrazolium bromide […]
(MTT) to its insoluble formazan. Briefly, the treatment was replaced with MTT in HBSS [0.5 mg/mL] for 2 h at 37°C in 5% CO2. After washing with HBSS, formazan crystals were dissolved in isopropanol. The amount of formazan was measured (570 nm, reference filter 690 nm) using a multilabel plate reader (VICTOR™ X3, PerkinElmer, Waltham, MA, USA). Data are expressed as mean of three independent experiments. […]

[2] = PAMPA-BBB permeation; format: in vitro ADME
Method: 11. PAMPA BBB permeation studies.
Prediction of the brain penetration was evaluated using a parallel artificial membrane permeability assay (PAMPA).[12] Ten commercial drugs, PBS at pH 7.4, EtOH, and dodecane were purchased from Sigma- Aldrich, Acros organics, Merck, and Fluka. The porcine polar brain lipid (PBL) was from Avanti Polar Lipids. The donor plate was a 96-well filtrate plate (Multiscreen® IP Sterile Plate PDVF […]
both from Millipore. Filter PDVF membrane units (diameter 30 mm, pore size 0.45 µm) from Symta were used to filter the samples. A 96-well plate UV reader (Biteck Instruments, Synergy H4 Hibrid Reader) was used for the UV measurements.
12 mg of promazine) were dissolved in 1 mL of EtOH. 100 µL of this compound stock solution were taken and 1400 µL of EtOH and 3500 µL of PBS were added to reach 30% of EtOH concentration in the experiment. These solutions were filtered. The acceptor 96-well microplate was filled with 180 µL of PBS/EtOH (70/30). The donor 96-well plate was coated with 4 µL of porcine brain lipid in dodecane (20 mg mL-1) and after 5 min, 180 µL of each compound solution was added. 1 mg of […]
of EtOH and 1.4 mL of PBS, filtered and then added to the donor 96-well plate. Then the donor plate was carefully put on the acceptor plate to form a “sandwich”, which was left undisturbed for 2 h and 45 min at 25 °C. During this time the compounds diffused from the donor plate through the brain lipid membrane into the acceptor plate. After incubation, the donor plate was removed. UV plate reader determined the concentration of compounds and commercial drugs in the acceptor and the donor plates. Every sample was analyzed at three to five wavelengths (between 200 and 500 nm), in 3 wells and in two independent runs. Results are given as the mean and the average of the two runs is reported. Quality control compounds (previously mentioned) of known BBB permeability were included in each experiment to validate the analysis set.

[3] = classified from experimental Pe

Papp at 2.75 h ([2]; PAMPA, pH 7.4, PBS:EtOH (70:30), 2 h 45 min at 25 °C, porcine brain lipid, mean ± SD of two independent experiments, read-out: Pe (experimental data)): 15.3 ± 1.12 ×10⁻⁶ cm/s
BBB permeability classification [2, 3]: CNS±
SMILES: O=C(Cn1cc(C2=C(c3ccc(Cl)cc3Cl)C(=O)NC2=O)c2ccccc21)NCCCOCCCCOCCCNc1cccc2c1C(=O)N(C1CCC(=O)NC1=O)C2=O (centres unmarked) [Compound 1]
concentration at which cytotoxicity was shown ([1]; MTT, 24 h treatment, 1.25–40 μM): higher than 20 μM
nontoxic up to (neuronal cells) ([1]; neuronal cells): up to 20 μM
Prediction (penetration in the CNS) [2, 3]: CNS +/- (CNS +/- (orange) for 15.78 × 10 −6 cm s−1 > Pe > 11.11 × 10 –6 cm s−1)
